Measurements published in patent US9593149B2, “Amylin and calcitonin receptor agonist” (Novo Nordisk A/S, priority 2014, dated 2017).
Converted amounts (≈) assume the structure as drawn. Numbered stars: 1 amine (or outer) side, 2 acyl side, 3 side chain; on linkers, the order of the positions; unused ones are H or OH. Peptide text beside a SMILES is read from it. * marks the point of attachment. C20 diacid = O=C(O)CCCCCCCCCCCCCCCCCCC(=O)*; C18 diacid = O=C(O)CCCCCCCCCCCCCCCCC(=O)*; γGlu = O=C(O)[C@H](CCC(=O)[*:2])N[*:1]; AEEA = NCCOCCOCC(=O)O

Test: Assay (IV) determination of solubility
Type: physicochemical
Description: Assay (IV)—Determination of Solubility
The mimylin peptide was dissolved in water at ˜500 nmol/ml and mixed 1:1 with a series of buffers (100 mM glycylglycine pH 3.0, 100 mM glycylglycine pH 4.0, 100 mM glycylglycine pH 5.0, 100 mM bistrispropane pH 6.0, 100 mM bistrispropane pH 6.5, 100 mM bistrispropane pH 7.0, 100 mM bistrispropane pH 7.5, 100 mM bistrispropane pH 8.0).

## CC(C)C[C@H](NC(=O)[C@H](C)NC(=O)[C@H](C)NC(=O)[C@@H](NC(=O)[C@H](CO)NC(=O)[C@H](CC(C)C)NC(=O)[C@H](CCC(=O)O)NC(=O)[C@H](CO)NC(=O)[C@H](C)NC(=O)CC[C@H](NC(=O)CCCCCCCCCCCCCCCCCCC(=O)O)C(=O)O)[C@@H](C)O)C(=O)NCC(=O)N[C@@H](CCCNC(=N)N)C(=O)N[C@@H](CC(C)C)C(=O)N[C@@H](CO)C(=O)N[C@@H](CCC(=O)O)C(=O)N[C@@H](CCC(=O)O)C(=O)N[C@@H](CC(C)C)C(=O)N[C@@H](Cc1cnc[nH]1)C(=O)N[C@@H](CCC(=O)O)C(=O)N[C@@H](CC(C)C)C(=O)N[C@@H](C)C(=O)N[C@H](C(=O)N[C@@H](CC(C)C)C(=O)N1CCC[C@H]1C(=O)N[C@@H](CCCNC(=N)N)C(=O)N[C@H](C(=O)N[C@@H](CCC(=O)O)C(=O)N[C@H](C(=O)NCC(=O)N[C@@H](CO)C(=O)NCC(=O)N[C@@H](CO)C(=O)N1CCC[C@H]1C(N)=O)[C@@H](C)O)[C@@H](C)O)[C@@H](C)O [compound 66, [N-terminal(C20 diacid-gGlu), des1, 15E, 30S, 31G]mimylin] ({C20 diacid-γGlu}-ASELSTAALGRLSEELHELATLPRTETGSGSP-NH2)
pH 3.0
  Solubility: ≧200 μM
pH 4.0
  Solubility: ≧200 μM
pH 5.0
  Solubility: ≧200 μM
pH 6.0
  Solubility: ≧200 μM
pH 6.5
  Solubility: ≧200 μM
pH 7.0
  Solubility: ≧200 μM
pH 7.5
  Solubility: ≧200 μM
pH 8.0
  Solubility: ≧200 μM

## CC(C)C[C@H](NC(=O)[C@H](C)NC(=O)[C@H](C)NC(=O)[C@@H](NC(=O)[C@H](Cc1cnc[nH]1)NC(=O)[C@H](CC(C)C)NC(=O)[C@H](CCC(=O)O)NC(=O)[C@H](CO)NC(=O)[C@H](C)NC(=O)[C@H](CCC(=O)O)NC(=O)CCCCCCCCCCCCCCCCC(=O)O)[C@@H](C)O)C(=O)NCC(=O)N[C@@H](CCCNC(=N)N)C(=O)N[C@@H](CC(C)C)C(=O)N[C@@H](CO)C(=O)N[C@@H](C)C(=O)N[C@@H](CCC(=O)O)C(=O)N[C@@H](CC(C)C)C(=O)N[C@@H](Cc1cnc[nH]1)C(=O)N[C@@H](CCC(=O)O)C(=O)N[C@@H](CC(C)C)C(=O)N[C@@H](C)C(=O)N[C@H](C(=O)N[C@@H](CC(C)C)C(=O)N1CCC[C@H]1C(=O)N[C@@H](CCCNC(=N)N)C(=O)N[C@H](C(=O)N[C@@H](CCC(=O)O)C(=O)N[C@H](C(=O)NCC(=O)N1CCC[C@H]1C(=O)N[C@@H](CCC(=O)O)C(=O)N[C@@H](CO)C(=O)N1CCC[C@H]1C(N)=O)[C@@H](C)O)[C@@H](C)O)[C@@H](C)O [compound 16, [N-terminal(C18 diacid), 6H]mimylin] ({C18 diacid}-EASELHTAALGRLSAELHELATLPRTETGPESP-NH2)
pH 3.0
  Solubility: ≧200 μM
pH 4.0
  Solubility: ≧200 μM
pH 5.0
  Solubility: ≧200 μM
pH 6.0
  Solubility: ≧200 μM
pH 6.5
  Solubility: ≧200 μM
pH 7.0
  Solubility: ≧200 μM
pH 7.5
  Solubility: ≧200 μM
pH 8.0
  Solubility: ≧200 μM

## CC(C)C[C@H](NC(=O)[C@H](C)NC(=O)[C@H](C)NC(=O)[C@@H](NC(=O)[C@H](CO)NC(=O)[C@H](CC(C)C)NC(=O)[C@H](CCC(=O)O)NC(=O)[C@H](CO)NC(=O)[C@H](C)NC(=O)COCCOCCNC(=O)COCCOCCNC(=O)COCCOCCNC(=O)COCCOCCNC(=O)COCCOCCNC(=O)CC[C@H](NC(=O)CCCCCCCCCCCCCCCCCCC(=O)O)C(=O)O)[C@@H](C)O)C(=O)NCC(=O)N[C@@H](CCCNC(=N)N)C(=O)N[C@@H](CC(C)C)C(=O)N[C@@H](CO)C(=O)N[C@@H](C)C(=O)N[C@@H](CCC(=O)O)C(=O)N[C@@H](CC(C)C)C(=O)N[C@@H](Cc1cnc[nH]1)C(=O)N[C@@H](CCC(=O)O)C(=O)N[C@@H](CC(C)C)C(=O)N[C@@H](C)C(=O)N[C@H](C(=O)N[C@@H](CC(C)C)C(=O)N1CCC[C@H]1C(=O)N[C@@H](CCCNC(=N)N)C(=O)N[C@H](C(=O)N[C@@H](CCC(=O)O)C(=O)N[C@H](C(=O)NCC(=O)N[C@@H](CO)C(=O)NCC(=O)N[C@@H](CO)C(=O)N1CCC[C@H]1C(N)=O)[C@@H](C)O)[C@@H](C)O)[C@@H](C)O [compound 45, [N-terminal(C20 diacid-gGlu-5xOEG), des1, 30S, 31G]mimylin] ({C20 diacid-γGlu-AEEA-AEEA-AEEA-AEEA-AEEA}-ASELSTAALGRLSAELHELATLPRTETGSGSP-NH2)
pH 3.0
  Solubility: ≧200 μM
pH 4.0
  Solubility: ≧200 μM
pH 5.0
  Solubility: ≧200 μM
pH 6.0
  Solubility: ≧200 μM
pH 6.5
  Solubility: ≧200 μM
pH 7.0
  Solubility: ≧200 μM
pH 7.5
  Solubility: ≧200 μM
pH 8.0
  Solubility: ≧200 μM

## CC(C)C[C@H](NC(=O)[C@H](C)NC(=O)[C@H](C)NC(=O)[C@@H](NC(=O)[C@H](CO)NC(=O)[C@H](CC(C)C)NC(=O)[C@H](CCC(=O)O)NC(=O)[C@H](CO)NC(=O)[C@H](C)NC(=O)[C@H](CCC(=O)O)NC(=O)CC[C@H](NC(=O)CCCCCCCCCCCCCCCCCCC(=O)O)C(=O)O)[C@@H](C)O)C(=O)NCC(=O)N[C@@H](CCCNC(=N)N)C(=O)N[C@@H](CC(C)C)C(=O)N[C@@H](CO)C(=O)N[C@@H](C)C(=O)N[C@@H](CCC(=O)O)C(=O)N[C@@H](CC(C)C)C(=O)N[C@@H](Cc1cnc[nH]1)C(=O)N[C@@H](CCC(=O)O)C(=O)N[C@@H](CC(C)C)C(=O)N[C@@H](C)C(=O)N[C@H](C(=O)N[C@@H](Cc1ccc(O)cc1)C(=O)N1CCC[C@H]1C(=O)N[C@@H](CCCNC(=N)N)C(=O)N[C@H](C(=O)N[C@@H](CCC(=O)O)C(=O)N[C@H](C(=O)NCC(=O)N[C@@H](CO)C(=O)NCC(=O)N[C@@H](CO)C(=O)N1CCC[C@H]1C(N)=O)[C@@H](C)O)[C@@H](C)O)[C@@H](C)O [compound 34, [N-terminal(C20 diacid-gGlu), 23Y, 30S, 31G]mimylin] ({C20 diacid-γGlu}-EASELSTAALGRLSAELHELATYPRTETGSGSP-NH2)
pH 3.0
  Solubility: ≧200 μM
pH 4.0
  Solubility: ≧200 μM
pH 5.0
  Solubility: ≧200 μM
pH 6.0
  Solubility: ≧200 μM
pH 6.5
  Solubility: ≧200 μM
pH 7.0
  Solubility: ≧200 μM
pH 7.5
  Solubility: ≧200 μM
pH 8.0
  Solubility: ≧200 μM

## CC(C)C[C@H](NC(=O)CC[C@H](NC(=O)CCCCCCCCCCCCCCCCCCC(=O)O)C(=O)O)C(=O)N[C@@H](CO)C(=O)NCC(=O)N[C@@H](CC(C)C)C(=O)N[C@@H](CO)C(=O)N[C@H](C(=O)N[C@@H](C)C(=O)N[C@H](C(=O)N[C@@H](CC(C)C)C(=O)NCC(=O)N[C@@H](CCCNC(=N)N)C(=O)N[C@@H](CC(C)C)C(=O)N[C@@H](CO)C(=O)N[C@@H](CCC(N)=O)C(=O)N[C@@H](CCC(=O)O)C(=O)N[C@@H](CC(C)C)C(=O)N[C@@H](Cc1cnc[nH]1)C(=O)N[C@@H](CCC(=O)O)C(=O)N[C@@H](CC(C)C)C(=O)N[C@@H](CCC(N)=O)C(=O)N[C@H](C(=O)N[C@@H](Cc1ccc(O)cc1)C(=O)N1CCC[C@H]1C(=O)N[C@@H](CCCNC(=N)N)C(=O)N[C@H](C(=O)N[C@@H](CCC(=O)O)C(=O)N[C@H](C(=O)NCC(=O)N[C@@H](CO)C(=O)N[C@@H](CCC(N)=O)C(=O)N[C@H](C(=O)N[C@@H](Cc1ccc(O)cc1)C(N)=O)[C@@H](C)O)[C@@H](C)O)[C@@H](C)O)[C@@H](C)O)C(C)C)[C@@H](C)O [compound 127, [N-terminal(C20 diacid-gGlu), des1, 2L, 4G, 9V, 15Q, 21Q, 23Y, 30S, 31Q, 32T, 33Y]mimylin] ({C20 diacid-γGlu}-LSGLSTAVLGRLSQELHELQTYPRTETGSQTY-NH2)
pH 3.0
  Solubility: ≧200 μM
pH 4.0
  solubility at 18 h: 31 µM (≈ 124 µg/mL)
pH 6.0
  Solubility: ≧200 μM
pH 6.5
  Solubility: ≧200 μM
pH 7.0
  Solubility: ≧200 μM
pH 7.5
  Solubility: ≧200 μM
pH 8.0
  Solubility: ≧200 μM

## CC[C@H](C)[C@H](NC(=O)[C@H](CCC(=O)O)NC(=O)[C@H](C)NC(=O)[C@H](CO)NC(=O)[C@H](CC(C)C)NC(=O)[C@H](CCCNC(=N)N)NC(=O)CNC(=O)[C@H](CC(C)C)NC(=O)[C@H](C)NC(=O)[C@H](C)NC(=O)[C@@H](NC(=O)[C@H](CO)NC(=O)[C@H](CC(C)C)NC(=O)[C@H](CCC(=O)O)NC(=O)[C@H](CO)NC(=O)[C@H](C)NC(=O)[C@H](CCC(=O)O)NC(=O)CCCCCCCCCCCCCCCCC(=O)O)[C@@H](C)O)C(=O)N[C@@H](Cc1cnc[nH]1)C(=O)N[C@@H](CCC(=O)O)C(=O)N[C@@H](CC(C)C)C(=O)N[C@@H](C)C(=O)N[C@H](C(=O)N[C@@H](CC(C)C)C(=O)N1CCC[C@H]1C(=O)N[C@@H](CCCNC(=N)N)C(=O)N[C@H](C(=O)N[C@@H](CCC(=O)O)C(=O)N[C@H](C(=O)NCC(=O)N1CCC[C@H]1C(=O)N[C@@H](CCC(=O)O)C(=O)N[C@@H](CO)C(=O)N1CCC[C@H]1C(N)=O)[C@@H](C)O)[C@@H](C)O)[C@@H](C)O [compound 11, [N-terminal(C18 diacid), 17I]mimylin] ({C18 diacid}-EASELSTAALGRLSAEIHELATLPRTETGPESP-NH2)
pH 3.0
  Solubility: ≧200 μM
pH 4.0
  Solubility: ≧200 μM
pH 5.0
  Solubility: ≧200 μM
pH 6.0
  Solubility: ≧200 μM
pH 6.5
  Solubility: ≧200 μM
pH 7.0
  Solubility: ≧200 μM
pH 7.5
  Solubility: ≧200 μM
pH 8.0
  Solubility: ≧200 μM
